For this data set, the system named is CCRIS mutagenicity, Ames/micronucleus/aberration tests. Nature of the data set: CCRIS mutagenicity studies.
[1] abbreviates: Test System: AMES SALMONELLA TYPHIMURIUM, Strain/Indicator: TA98, Metabolic Activation: NONE, Method: STANDARD PLATE.
The mark [2] stands for this setting: Test System: AMES SALMONELLA TYPHIMURIUM, Strain/Indicator: TA98, Metabolic Activation: RAT, LIVER, S-9, AROCLOR 1254, Method: STANDARD PLATE.
[3] abbreviates: Test System: AMES SALMONELLA TYPHIMURIUM, Strain/Indicator: TA100, Metabolic Activation: NONE, Method: STANDARD PLATE.
Setting [4] is: Test System: AMES SALMONELLA TYPHIMURIUM, Strain/Indicator: TA100, Metabolic Activation: RAT, LIVER, S-9, AROCLOR 1254, Method: STANDARD PLATE.
Where [5] appears, read: Test System: AMES SALMONELLA TYPHIMURIUM, Strain/Indicator: TA1535, Metabolic Activation: NONE, Method: STANDARD PLATE.
Where [6] appears, read: Test System: AMES SALMONELLA TYPHIMURIUM, Strain/Indicator: TA1535, Metabolic Activation: RAT, LIVER, S-9, AROCLOR 1254, Method: STANDARD PLATE.
Where [7] appears, read: Test System: AMES SALMONELLA TYPHIMURIUM, Strain/Indicator: TA1537, Metabolic Activation: NONE, Method: STANDARD PLATE.
The mark [8] stands for this setting: Test System: AMES SALMONELLA TYPHIMURIUM, Strain/Indicator: TA1537, Metabolic Activation: RAT, LIVER, S-9, AROCLOR 1254, Method: STANDARD PLATE.
Where [9] appears, read: Test System: AMES SALMONELLA TYPHIMURIUM, Strain/Indicator: TA1538, Metabolic Activation: NONE, Method: STANDARD PLATE.
Where [10] appears, read: Test System: AMES SALMONELLA TYPHIMURIUM, Strain/Indicator: TA1538, Metabolic Activation: RAT, LIVER, S-9, AROCLOR 1254, Method: STANDARD PLATE.
The mark [11] stands for this setting: Test System: AMES SALMONELLA TYPHIMURIUM, Strain/Indicator: TA100, Metabolic Activation: NONE, Method: PREINCUBATION

Activity calls are given as the source filed them. How the calls were made is not given here.

With `Nc1ccc(-c2cc(Cl)c(N)cc2[N+](=O)[O-])cc1Cl`, the mutagenic call reads like this: (Test System: Ames Salmonella typhimurium, Strain/Indicator: TA98, Metabolic Activation: None, Method: Preincubation) “active; positive. weak response”; (Test System: Ames Salmonella typhimurium, Strain/Indicator: TA98, Metabolic Activation: Rat, Liver, S-9, Phenobarbital and 5,6-benzoflavone, Method: Preincubation) “active; positive”; (Test System: Ames Salmonella typhimurium, Strain/Indicator: TA100, Metabolic Activation: None, Method: Preincubation) “inactive; negative”; (Test System: Ames Salmonella typhimurium, Strain/Indicator: TA100, Metabolic Activation: Rat, Liver, S-9, Phenobarbital and 5,6-benzoflavone, Method: Preincubation) “active; positive. weak response”; (Test System: Ames Salmonella typhimurium, Strain/Indicator: YG1024, Metabolic Activation: None, Method: Preincubation) “active; positive”; (Test System: Ames Salmonella typhimurium, Strain/Indicator: YG1024, Metabolic Activation: Rat, Liver, S-9, Phenobarbital and 5,6-benzoflavone, Method: Preincubation) “active; positive”. The mutagenic call is, setting by setting: (Test System: Ames Salmonella typhimurium, Strain/Indicator: YG1029, Metabolic Activation: None, Method: Preincubation) “inactive; negative”; (Test System: Ames Salmonella typhimurium, Strain/Indicator: YG1029, Metabolic Activation: Rat, Liver, S-9, Phenobarbital and 5,6-benzoflavone, Method: Preincubation) “active; positive. weak response”.
Consider `NC(=O)c1ccc(N)cc1`, for which the mutagenic call was “inactive; negative” (Test System: AMES SALMONELLA TYPHIMURIUM, Strain/Indicator: TA98, Metabolic Activation: HAMSTER, LIVER, S-9, AROCLOR 1254, Method: STANDARD PLATE); “inactive; negative” under setting [1]; “inactive; negative” under setting [2]; “inactive; negative” (Test System: AMES SALMONELLA TYPHIMURIUM, Strain/Indicator: TA100, Metabolic Activation: HAMSTER, LIVER, S-9, AROCLOR 1254, Method: STANDARD PLATE); “inactive; negative” under setting [3]; “inactive; negative” under setting [4]. Further, the mutagenic call was “inactive; negative” (Test System: AMES SALMONELLA TYPHIMURIUM, Strain/Indicator: TA1535, Metabolic Activation: HAMSTER, LIVER, S-9, AROCLOR 1254, Method: STANDARD PLATE); “inactive; negative” under setting [5]; “inactive; negative” under setting [6]; “inactive; negative” (Test System: AMES SALMONELLA TYPHIMURIUM, Strain/Indicator: TA1537, Metabolic Activation: HAMSTER, LIVER, S-9, AROCLOR 1254, Method: STANDARD PLATE); “inactive; negative” under setting [7]; “inactive; negative” under setting [8]. Further, the mutagenic call reads like this: (Test System: AMES SALMONELLA TYPHIMURIUM, Strain/Indicator: TA1538, Metabolic Activation: HAMSTER, LIVER, S-9, AROCLOR 1254, Method: STANDARD PLATE) “inactive; negative”; under setting [9], “inactive; negative”; under setting [10], “inactive; negative”; (Test System: Mouse lymphoma, Strain/Indicator: L5178Y (tk+/tk-), Metabolic Activation: None, Method: Suspension/plate) “inactive; negative”; (Test System: Mouse lymphoma, Strain/Indicator: L5178Y (tk+/tk-), Metabolic Activation: Rat, Liver, S-9, Aroclor 1254, Method: Suspension/plate) “inactive; negative”.
For the compound `O=C(O)Cc1c[nH]c2ccccc12`, the mutagenic call was “inactive; negative” (Test System: AMES SALMONELLA TYPHIMURIUM, Strain/Indicator: TA97A, Metabolic Activation: NONE, Method: STANDARD PLATE); “inactive; negative” (Test System: AMES SALMONELLA TYPHIMURIUM, Strain/Indicator: TA97A, Metabolic Activation: RAT, LIVER, S-9, AROCLOR 1254, Method: STANDARD PLATE); “inactive; negative” under setting [1]; “inactive; negative” (Test System: AMES SALMONELLA TYPHIMURIUM, Strain/Indicator: TA98, Metabolic Activation: RAT LIVER S-9, 3-METHYLCHOLANTHRENE AND PHENOBARBITAL, Method: STANDARD PLATE); “inactive; negative” under setting [2]; “inactive; negative” under setting [11]. The mutagenic call is “inactive; negative” under setting [3]; “inactive; negative” (Test System: AMES SALMONELLA TYPHIMURIUM, Strain/Indicator: TA100, Metabolic Activation: RAT LIVER S-9, 3-METHYLCHOLANTHRENE AND PHENOBARBITAL, Method: STANDARD PLATE); “inactive; negative” under setting [4]; “inactive; negative” under setting [5]; “inactive; negative” under setting [6]; “inactive; negative” under setting [7]. Further, the mutagenic call reads like this: under setting [8], “inactive; negative”; under setting [9], “inactive; negative”; under setting [10], “inactive; negative”.
For the compound `O=C1c2ccc([N+](=O)[O-])cc2C(=O)N1CCl`, the mutagenic call is “active; positive” (Test System: AMES SALMONELLA TYPHIMURIUM, Strain/Indicator: TA98, Metabolic Activation: NONE, Method: PREINCUBATION); “active; positive” (Test System: AMES SALMONELLA TYPHIMURIUM, Strain/Indicator: TA98, Metabolic Activation: RAT, LIVER, S-9, PCB, Method: PREINCUBATION); “active; positive” under setting [11]; “active; positive” (Test System: AMES SALMONELLA TYPHIMURIUM, Strain/Indicator: TA100, Metabolic Activation: RAT, LIVER, S-9, PCB, Method: PREINCUBATION).
Take `Cc1ccc(N(SC(F)(Cl)Cl)S(=O)(=O)N(C)C)cc1`: the mutagenic call runs as follows: (End Point: In vivo chromosomal aberrations, Test System: Peripheral blood lymphocytes, Species: Sheep, Strain/Sex: Merino/female, Route: Intrarumen) “active; positive (structural changes)”; (End Point: In vivo micronucleus, Test System: Peripheral blood lymphocytes, Species: Sheep, Strain/Sex: Merino/female, Route: Intrarumen) “active; positive”.
In the case of `OC(c1ccc(Cl)cc1)(c1ccc(Cl)cc1)C1CC1`, the mutagenic call is “inactive; negative” (Test System: AMES SALMONELLA TYPHIMURIUM, Strain/Indicator: TA97, Metabolic Activation: NONE, Method: STANDARD PLATE); “inactive; negative” (Test System: AMES SALMONELLA TYPHIMURIUM, Strain/Indicator: TA97, Metabolic Activation: RAT, LIVER, S-9, AROCLOR 1254, Method: STANDARD PLATE); “inactive; negative” under setting [1]; “inactive; negative” under setting [2]; “inactive; negative” under setting [3]; “inactive; negative” under setting [4].
With `CCC[CH2][Sn]([Cl])([Cl])[CH2]CCC`, the mutagenic call runs as follows: (Test System: AMES SALMONELLA TYPHIMURIUM, Strain/Indicator: TA98, Metabolic Activation: NONE, Method: SUSPENSION/PLATE) “inactive; negative”; (Test System: AMES SALMONELLA TYPHIMURIUM, Strain/Indicator: TA100, Metabolic Activation: NONE, Method: SUSPENSION/PLATE) “inactive; negative”.
Consider `C[C@H](CCC(=O)NCCS(=O)(=O)O)[C@H]1CC[C@H]2[C@@H]3C[C@H](O)[C@@H]4C[C@H](O)CC[C@]4(C)[C@H]3CC[C@]12C`, for which the mutagenic call under setting [1] was “inactive; negative”; the mutagenic call under setting [2] was “inactive; negative”; the mutagenic call under setting [3] was “inactive; negative”; the mutagenic call under setting [4] is “inactive; negative”; the mutagenic call under setting [5] is “inactive; negative”; the mutagenic call under setting [6] is “inactive; negative”. Moreover, the mutagenic call was “inactive; negative” under setting [7], “inactive; negative” under setting [8], “inactive; negative” under setting [9] and “inactive; negative” under setting [10].
